The test system of data set [1] is male Wistar rats. Kind of data set: Inhibition test of anemic decerebrate rigidity. It is filed as in vivo. Particulars: inhibition time of forelimb rigidity, intravenously, 5 mg/kg, dissolved in polyethlene glycol 400. The method, then:
The rigidity animals were prepared according to the method of Fukuda et al. [Japanese J. Pharmacol., vol. 24, pages 810 - 813 (1974)].
Four male Wistar rats weighing 250 to 350 g were used for each group.
The animal was incised on the cervical region under the ethyl ether anesthesia, and the common carotid arteries were ligated bilaterally. A trephined opening was made in the occipital bone and the basilar artery was coagulated using a bipolar electro-coagulator. Marked rigidity occurred on the forelimbs after discontinuation of the ethyl ether anesthesia. The test drugs dissolved in polyethlene glycol 400 were each administered intravenously in a dose of 5 mg/kg (0.1 ml per 100 g of rat) to determine the inhibition time of the rigidity.

Data set [2] deals with male ICR mice. Kind of data set: Straub tail test (morphine-induced tail elevation). It is filed as in vivo. Particulars: orally 100 mg/kg, 15 mg/kg morphine hydrochloride s.c. after 15 minutes, tail elevation determined after 30 minutes, positive when angle less than 45°. The method, then: The test was carried out according to the method of Ellis et al. [Neuropharmacology, vol. 13, pages 211 - 214 (1974)]. Five male ICR mice weighing 20 to 30 g were used for each group. The test drugs suspended in 0.4% aqueous carboxymethylcellulose solution were administered orally in a dose of 100 mg/kg (0.1 ml per 10 g of mouse). After 15 minutes, 15 mg/kg of morphine hydrochloride was administered subcutaneously, and after 30 minutes, the tail elevation was determined. The muscle relaxation activity was defined as positive when the angle of tail elevation from the horizontal was less than 45°. As a result, the inhibition ratio of Compounds 2, 4 and 8 were each 100%.

For data set [3], the system named is male Wistar rats. Kind of data set: Inhibition test of the radiofrequency decerebrate rigidity. Particulars: inhibition time of hindlimb rigidity, intravenously, 5 mg/kg, dissolved in propylene glycol. It is filed as in vivo. The protocol:
The rigidity animals were prepared according to the method of Ono et al. [Gen. Pharm., vol. 18, pages 57 - 59 (1987)].
Four male Wistar rats weighing 250 to 350 g were used for each group. The animals were anesthetized with ethyl ether and fixed on a brain stereotaxic apparatus to break the midbrain bilaterally (APO, V-3, L±1.5). Rigidity occurred gradually in the hindlimbs after discontinuation of ethyl ether anesthesia. The test drugs dissolved in propylene glycol were administered intravenously in a dose of 5 mg/kg (0.1 ml per 100 g of rat) to determine the inhibition time of the rigidity.

In data set [4] the test system is male ICR mice. Kind of data set: Acute toxicity test. Particulars: orally, dose of 1 g/kg, observed 7 days after administration. It is filed as in vivo. The protocol: (§1) Ten male ICR mice weighing 25 to 34 g were used. Compound 4 suspended in 0.4 aqueous carboxymethylcellulose solution was each administered orally to mice in a volume of 0.1 ml per 10 g of mice. The survivals were observed 7 days after administration.

A further data set in a line: Acute toxicity test. In kind it is in vivo, ICR mice. Particulars: mouse, in vivo, po; mice; p.o.; survivals observed 7 days after administration; read-out: LD₅₀ value. The protocol:
as §1

Each structure is given as a SMILES string. Where only a bound is given, the exact number is not on record here.

Regarding `CC(C(=O)NC1CC1)S(=O)(=O)c1ccc(Cl)cc1Cl` (centres unmarked) [Compound 8, N-cyclopropyl-2-(2,4-dichlorophenylsulfonyl)propionamide], the results for the “Inhibition Time” value with male Wistar rats [1] and in the data set on male Wistar rats [3] were 17.7 min and 78.0 min, respectively. Further, in the data set on male ICR mice [2], the inhibition ratio is 100%.

Consider `CC(C(=O)NC1CC1)S(=O)(=O)c1ccccc1Cl` (centres unmarked) [Compound 2, N-cyclopropyl-2-(2-chlorophenylsulfonyl)propionamide], for which the “Inhibition Time” value in the data set on male Wistar rats [1] was determined as 5.0 min; in the data set with male Wistar rats [3], 11.7 min. In addition, the inhibition ratio in the data set on male ICR mice [2] was determined as 100%.

For `CC(C(=O)NC1CC1)S(=O)(=O)c1ccc(F)cc1Cl` (centres unmarked) [Compound 11], in the data set on male Wistar rats [3], the “Inhibition Time” value was 24.0 min.

Consider `CC(C(=O)NC1CC1)S(=O)(=O)c1ccccc1Br` (centres unmarked) [Compound 4, N-cyclopropyl-2-(2-bromophenylsulfonyl)propionamide], for which the death entry in the data set with male ICR mice [4] is on record as “No death occurred”. The LD50 at 168 h in “Acute toxicity test” is above 1000 mg/kg. The inhibition ratio with male ICR mice [2] amounted to 100%. Also, the “Inhibition Time” value in the data set with male Wistar rats [3] amounted to 37.0 min.
